Legend:
[1] = test system: SETVI (Foxtail, Green); assay: Preemergence herbicidal evaluation; assay type: in vivo, Setaria viridis; settings: rated 4-5 weeks after treatment
Method in brief: (§1)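 Seeds were mixed with potting soil and planted on about one inch of soil, then sprayed with test compound in aqueous acetone at about 0.0156 to 0.500 kg per hectare. Plants grew under standard greenhouse care and were visually rated 0-9 against untreated controls 4-5 weeks post-treatment.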

[2] = test system: AMBEL (Ragweed, Common); assay: Postemergence herbicidal evaluation; assay type: in vivo, Ambrosia artemisifolia
Method in brief: (§2)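 Compound is applied as a foliar spray to seedlings about two weeks old, formulated in equal parts acetone and water with 0.5% TWEEN 20 and delivered at 40 psi to give about 0.0156–0.500 kg per hectare. Injury is rated visually 0–9 after four to five weeks.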

[3] = test system: TRZAWR (Wheat, Winter, cv Riband); assay: Postemergence herbicidal evaluation; assay type: in vivo, Triticum aestivum
Method in brief: as §2

[4] = test system: CYPSE (Flatsedge); assay: Preemergence weed control under flooded paddy conditions; assay type: in vivo, Cyperus serotinus; settings: rated 3-4 weeks after treatment
Method in brief: (§3)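 Values are visual 0-9 scores against a control for a preemergence application into paddy flood water at about 0.0313 to 0.500 kg/ha. Greenhouse duration was three to four weeks.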

[5] = test system: CASOB (Sicklepod); assay: Postemergence herbicidal evaluation; assay type: in vivo, Cassia obtusifolia
Method in brief: as §2

[6] = test system: GLXMAW (Soybean, Williams); assay: Postemergence herbicidal evaluation; assay type: in vivo, Glycine max, (L.) Merr. cv Williams
Method in brief: as §2

[7] = test system: ECHORC (Watergrass (Calif.)); assay: Preemergence weed control under flooded paddy conditions; assay type: in vivo, Echinochloa oryzoides; settings: rated 3-4 weeks after treatment
Method in brief: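 Flooded-pot preemergence screen with silt loam and seeds in the upper 0.5 cm. Dose about 0.0313 to 0.500 kg/ha, delivered into flood water; visual 0-9 score after 3 to 4 weeks.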

[8] = test system: GALAP (Galium); assay: Postemergence herbicidal evaluation; assay type: in vivo, Galium aparine
Method in brief: as §2

[9] = test system: ORYSAT (Rice, Tebonnet); assay: Preemergence herbicidal evaluation; assay type: in vivo, Oryza sativa, (L.) Tebonnet; settings: rated 4-5 weeks after treatment
Method in brief: as §1

[10] = test system: SAGPY (Arrowhead (Pygmaea)); assay: Postemergence weed control under flooded paddy conditions; assay type: in vivo, Sagittaria pygmaea; settings: postemergence weeds
Method in brief: (§4)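 Weeds 3 to 5 cm tall and rice seedlings at the 1.5 to 2.5 leaf stage were flooded, with water held 1.5 to 3 cm above the soil. Compounds in 50/50 v/v aqueous/acetone went into the flood water at about 0.0313 to 0.500 kg/ha. Visual 0-9 ratings versus control were made 3 to 4 weeks later.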

[11] = test system: SAGPY (Arrowhead (Pygmaea)); assay: Preemergence weed control under flooded paddy conditions; assay type: in vivo, Sagittaria pygmaea; settings: rated 3-4 weeks after treatment
Method in brief: as §3

[12] = test system: GALAP (Galium); assay: Preemergence herbicidal evaluation; assay type: in vivo, Galium aparine; settings: rated 4-5 weeks after treatment
Method in brief: as §1

[13] = test system: ECHORC (Watergrass (Calif.)); assay: Postemergence weed control under flooded paddy conditions; assay type: in vivo, Echinochloa oryzoides; settings: postemergence weeds
Method in brief: as §4

[14] = test system: MOOVA (Monochoria); assay: Preemergence weed control under flooded paddy conditions; assay type: in vivo, Monochoria vaginalis; settings: rated 3-4 weeks after treatment
Method in brief: as §3

[15] = rate 0.0625 kg/ha, 3-4 weeks after treatment
[16] = rate 0.1250 kg/ha, 3-4 weeks after treatment
[17] = rate 0.2500 kg/ha, 3-4 weeks after treatment
[18] = rate 0.0313 kg/ha, 3-4 weeks after treatment
[19] = Rate 0.2500 kg/ha, rated 3 to 4 weeks after treatment

C[C@@H](C(=O)O)N1C(=O)CS/C1=N/c1cc(-n2c(=O)cc(C(F)(F)F)n(C)c2=O)c(F)cc1Cl [Compound 51, 2-{{2-Chloro-5-[3,6-dihydro-3-methyl-2,6-dioxo-4-(trifluoromethyl)-1(2H)-pyrimidinyl]-4-fluoro-phenyl}imino}-α-methyl-4-oxo-3-thiazolidineacetic acid, L-]
5.0: Preemergence herbicidal rating GALAP ([12]; rate 0.0625 kg/ha)
5.5: Postemergence herbicidal rating TRZAWR ([3]; Rate 0.0315 kg/ha)
0.0: Preemergence herbicidal rating SETVI ([1]; rate 0.0313 kg/ha) | Herbicidal rating CYPSE ([4]; 0.0625 kg/ha) | Herbicidal rating CYPSE ([4]; 0.1250 kg/ha) | Herbicidal rating CYPSE ([4]; 0.2500 kg/ha) | Herbicidal rating ECHORC ([7]; 0.0625 kg/ha) | Herbicidal rating ECHORC ([7]; 0.1250 kg/ha) | Herbicidal rating ECHORC ([7]; 0.2500 kg/ha) | Preemergence herbicidal rating ORYSAT ([9]; rate 0.0156 kg/ha) | Herbicidal rating SAGPY [10, 15] | Herbicidal rating SAGPY [10, 16] | Herbicidal rating SAGPY [10, 17] | Herbicidal rating SAGPY ([11]; 0.0625 kg/ha) | Herbicidal rating SAGPY ([11]; 0.1250 kg/ha) | Herbicidal rating SAGPY ([11]; 0.2500 kg/ha) | Preemergence herbicidal rating GALAP ([12]; rate 0.0156 kg/ha) | Preemergence herbicidal rating GALAP ([12]; rate 0.0313 kg/ha) | Herbicidal rating ECHORC [13, 15] | Herbicidal rating ECHORC [13, 16] | Herbicidal rating ECHORC [13, 17]
1.0: Preemergence herbicidal rating SETVI ([1]; rate 0.0156 kg/ha) | Preemergence herbicidal rating ORYSAT ([9]; rate 0.0313 kg/ha) | Preemergence herbicidal rating ORYSAT ([9]; rate 0.0625 kg/ha) | Preemergence herbicidal rating ORYSAT ([9]; rate 0.1250 kg/ha)
8.0: Postemergence herbicidal rating GLXMAW ([6]; Rate 0.0315 kg/ha) | Postemergence herbicidal rating GLXMAW ([6]; Rate 0.0630 kg/ha)
6.0: Preemergence herbicidal rating SETVI ([1]; rate 0.1250 kg/ha) | Postemergence herbicidal rating AMBEL ([2]; Rate 0.0158 kg/ha) | Postemergence herbicidal rating AMBEL ([2]; Rate 0.0315 kg/ha) | Postemergence herbicidal rating GLXMAW ([6]; Rate 0.0158 kg/ha)
9.0: Preemergence herbicidal rating SETVI ([1]; rate 0.2500 kg/ha) | Postemergence herbicidal rating AMBEL ([2]; Rate 0.0630 kg/ha) | Postemergence herbicidal rating GALAP ([8]; Rate 0.0315 kg/ha) | Postemergence herbicidal rating GALAP ([8]; Rate 0.0630 kg/ha) | Preemergence herbicidal rating GALAP ([12]; rate 0.2500 kg/ha)
2.0: Postemergence herbicidal rating CASOB ([5]; Rate 0.0158 kg/ha) | Postemergence herbicidal rating CASOB ([5]; Rate 0.0315 kg/ha)
4.0: Postemergence herbicidal rating TRZAWR ([3]; Rate 0.0158 kg/ha) | Postemergence herbicidal rating GALAP ([8]; Rate 0.0158 kg/ha) | Herbicidal rating MOOVA ([14]; 0.1250 kg/ha) | Herbicidal rating MOOVA ([14]; 0.2500 kg/ha)
3.0: Preemergence herbicidal rating SETVI ([1]; rate 0.0625 kg/ha) | Herbicidal rating MOOVA ([14]; 0.0625 kg/ha)
7.0: Postemergence herbicidal rating TRZAWR ([3]; Rate 0.0630 kg/ha) | Postemergence herbicidal rating CASOB ([5]; Rate 0.0630 kg/ha) | Preemergence herbicidal rating ORYSAT ([9]; rate 0.2500 kg/ha) | Preemergence herbicidal rating GALAP ([12]; rate 0.1250 kg/ha)

CCOC(=O)CN1C(=O)C(CC(=O)OC)S/C1=N/c1cc(-n2c(=O)cc(C(F)(F)F)n(C)c2=O)c(F)cc1Cl (centres unmarked) [Compound 54, 2-{{2-Chloro-5-[3,6-dihydro-3-methyl-2,6-dioxo-4-(trifluoromethyl)-1(2H)-pyrimidinyl]-4-fluorophenyl}imino}-4-oxo-3,5-thiazolidinediacetic acid, 3-ethyl methyl ester]
0.0: Herbicidal rating CYPSE ([4]; 0.0313 kg/ha) | Herbicidal rating CYPSE ([4]; 0.0625 kg/ha) | Herbicidal rating CYPSE ([4]; 0.1250 kg/ha) | Preemergence herbicidal rating ORYSAT ([9]; rate 0.0156 kg/ha) | Preemergence herbicidal rating ORYSAT ([9]; rate 0.0313 kg/ha) | Herbicidal rating SAGPY [10, 18] | Herbicidal rating SAGPY [10, 15] | Herbicidal rating SAGPY [10, 16] | Herbicidal rating SAGPY ([11]; 0.0313 kg/ha) | Herbicidal rating SAGPY ([11]; 0.0625 kg/ha) | Herbicidal rating SAGPY ([11]; 0.1250 kg/ha) | Preemergence herbicidal rating GALAP ([12]; rate 0.0156 kg/ha) | Preemergence herbicidal rating GALAP ([12]; rate 0.0313 kg/ha) | Preemergence herbicidal rating GALAP ([12]; rate 0.0625 kg/ha) | Herbicidal rating MOOVA ([14]; 0.0313 kg/ha) | Herbicidal rating MOOVA ([14]; 0.0625 kg/ha)
2.0: Preemergence herbicidal rating SETVI ([1]; rate 0.0313 kg/ha) | Preemergence herbicidal rating ORYSAT ([9]; rate 0.1250 kg/ha) | Herbicidal rating SAGPY [10, 17] | Herbicidal rating SAGPY ([11]; 0.2500 kg/ha)
9.0: Preemergence herbicidal rating SETVI ([1]; rate 0.2500 kg/ha) | Preemergence herbicidal rating SETVI ([1]; rate 0.5000 kg/ha) | Postemergence herbicidal rating AMBEL ([2]; Rate 0.0158 kg/ha) | Postemergence herbicidal rating AMBEL ([2]; Rate 0.0315 kg/ha) | Postemergence herbicidal rating AMBEL ([2]; Rate 0.0630 kg/ha) | Postemergence herbicidal rating TRZAWR ([3]; Rate 0.0630 kg/ha) | Postemergence herbicidal rating CASOB ([5]; Rate 0.0630 kg/ha) | Postemergence herbicidal rating GLXMAW ([6]; Rate 0.0158 kg/ha) | Postemergence herbicidal rating GLXMAW ([6]; Rate 0.0315 kg/ha) | Postemergence herbicidal rating GLXMAW ([6]; Rate 0.0630 kg/ha) | Herbicidal rating ECHORC ([7]; 0.2500 kg/ha) | Postemergence herbicidal rating GALAP ([8]; Rate 0.0315 kg/ha) | Postemergence herbicidal rating GALAP ([8]; Rate 0.0630 kg/ha) | Preemergence herbicidal rating GALAP ([12]; rate 0.1250 kg/ha) | Preemergence herbicidal rating GALAP ([12]; rate 0.2500 kg/ha) | Herbicidal rating ECHORC [13, 17]
7.0: Preemergence herbicidal rating SETVI ([1]; rate 0.1250 kg/ha) | Postemergence herbicidal rating TRZAWR ([3]; Rate 0.0315 kg/ha) | Herbicidal rating ECHORC ([7]; 0.1250 kg/ha) | Herbicidal rating ECHORC [13, 16]
3.5: Preemergence herbicidal rating SETVI ([1]; rate 0.0625 kg/ha)
4.5: Preemergence herbicidal rating ORYSAT ([9]; rate 0.2500 kg/ha)
4.0: Herbicidal rating CYPSE ([4]; 0.2500 kg/ha)
5.0: Postemergence herbicidal rating TRZAWR ([3]; Rate 0.0158 kg/ha) | Postemergence herbicidal rating CASOB ([5]; Rate 0.0158 kg/ha) | Herbicidal rating ECHORC ([7]; 0.0313 kg/ha) | Herbicidal rating ECHORC ([7]; 0.0625 kg/ha) | Herbicidal rating ECHORC [13, 18] | Herbicidal rating ECHORC [13, 15]
6.0: Postemergence herbicidal rating CASOB ([5]; Rate 0.0315 kg/ha) | Postemergence herbicidal rating GALAP ([8]; Rate 0.0158 kg/ha) | Preemergence herbicidal rating ORYSAT ([9]; rate 0.5000 kg/ha) | Herbicidal rating MOOVA ([14]; 0.1250 kg/ha) | Herbicidal rating MOOVA ([14]; 0.2500 kg/ha)
1.0: Preemergence herbicidal rating SETVI ([1]; rate 0.0156 kg/ha) | Preemergence herbicidal rating ORYSAT ([9]; rate 0.0625 kg/ha)

Cn1c(C(F)(F)F)cc(=O)n(-c2cc(/N=C3/SC(CC(=O)O)C(=O)N3CC(=O)O)c(Cl)cc2F)c1=O (centres unmarked) [Compound 61, 2-{{2-Chloro-5-[3,6-dihydro-3-methyl-2,6-dioxo-4-(trifluoromethyl)-1(2H)-pyrimidinyl]-4-fluorophenyl}imino}-4-oxo-3,5-thiazolidinediacetic acid]
2.0: Postemergence herbicidal rating GLXMAW ([6]; Rate 0.0158 kg/ha)
4.0: Postemergence herbicidal rating GLXMAW ([6]; Rate 0.0630 kg/ha)
0.0: Preemergence herbicidal rating SETVI ([1]; rate 0.1250 kg/ha) | Postemergence herbicidal rating AMBEL ([2]; Rate 0.0158 kg/ha) | Postemergence herbicidal rating AMBEL ([2]; Rate 0.0315 kg/ha) | Postemergence herbicidal rating AMBEL ([2]; Rate 0.0630 kg/ha) | CYPSE herbicidal effect rating ([4]; 0.2500 kg/ha) | Postemergence herbicidal rating CASOB ([5]; Rate 0.0158 kg/ha) | Postemergence herbicidal rating CASOB ([5]; Rate 0.0315 kg/ha) | Postemergence herbicidal rating CASOB ([5]; Rate 0.0630 kg/ha) | ECHORC herbicidal effect rating ([7]; 0.2500 kg/ha) | Postemergence herbicidal rating GALAP ([8]; Rate 0.0158 kg/ha) | Postemergence herbicidal rating GALAP ([8]; Rate 0.0315 kg/ha) | Postemergence herbicidal rating GALAP ([8]; Rate 0.0630 kg/ha) | Preemergence herbicidal rating ORYSAT ([9]; rate 0.1250 kg/ha) | Herbicidal rating SAGPY [10, 19] | SAGPY herbicidal effect rating ([11]; 0.2500 kg/ha) | Preemergence herbicidal rating GALAP ([12]; rate 0.1250 kg/ha) | Preemergence herbicidal rating GALAP ([12]; rate 0.2500 kg/ha) | Herbicidal rating ECHORC [13, 19] | MOOVA herbicidal effect rating ([14]; 0.2500 kg/ha)
0.5: Postemergence herbicidal rating TRZAWR ([3]; Rate 0.0158 kg/ha) | Postemergence herbicidal rating TRZAWR ([3]; Rate 0.0315 kg/ha)
3.0: Postemergence herbicidal rating GLXMAW ([6]; Rate 0.0315 kg/ha)
1.0: Preemergence herbicidal rating SETVI ([1]; rate 0.2500 kg/ha) | Preemergence herbicidal rating ORYSAT ([9]; rate 0.2500 kg/ha)
1.5: Postemergence herbicidal rating TRZAWR ([3]; Rate 0.0630 kg/ha)

Reference: US20020137929A1, “1 - (3-heterocyclylphenyl) isothiourea, -isourea, -guanidine and -amidine herbicidal agents” (Intellectual Property Department, BASF Aktiengesellschaft, priority 1998, published 2002)
